Legend:
endothelial cells = conditions: ascorbate pretreatment; measured as citrulline formation and cGMP accumulation; cited from earlier work
[1] = DPPH scavenging effect (antioxidant assay); assay type: physicochemical; conditions: T. arjuna extracts from different plant parts
Source text: This method is based on the reduction of DPPH, a stable free radical. Due to the odd electron of DPPH, it gives a strong absorption maximum at 517 nm by visible spectroscopy (purple color). As the odd electron of the radical becomes paired off in the presence of hydrogen donor, that is, a free-radical scavenging antioxidant, the absorption strength is decreased, and the resulting de-coloration is stoichiometric with respect to the number of electrons captured. This reaction has widely been used to evaluate the anti-oxidative activity of food and plant extracts.
Reactions were performed in 1.25 ml of methanol containing 0.5 mM freshly made DPPH and various amounts of the extract. Reaction mixtures were incubated at 37° C. for 30 min, and the absorbance at 517 nm was measured. This assay was done in triplicate.
Oxidant (DPPH) inhibitory activity (%)={(A517Control−A517 Sample)/A517Control}×100
IC50 is defined as the amount of extract required for 50% inhibition in the levels of free radical. Table 25 gives the IC50 values of Terminalia arjuna bark and fruit extracts.

[2] = test system: Streptococcus fecalis ATCC-8043; experiment: Antibacterial assay, agar streak method; assay type: cell-based; parameters: key: +++: abundant growth; ++: growth; +: less growth; −: no growth; conditions: S. fecalis
Source text: (§1) Testing of anti-microbial potential was done against following bacterial strains (Gram negative: Escherichia coli ATCC-10536, Pseudomonas aeruginosa ATCC-9027, Klebsiella pneumoniea ATCC-10031, Bordetella bronchiseptica ATCC-4617; Gram Positive: Staphylococcus aureus ATCC-29737, Streptococcus fecalis ATCC-8043, Micrococcus luteus ATCC-9341, Bacillus subtilis ATCC-6633, Bacillus cereus ATCC-11778, Bacillus pumilus ATCC-14884, Staphylococcus epidermidis ATCC-6358) were selected from the microorganisms given in United states Pharmacopoeia (2000), British Pharmacopoeia (1993) and Indian Pharmacopoeia (1996) for anti-microbial assays.
(§2) A stock of 100 mg/ml of Ethyl acetate, Acetone, Ethanol, Methanol and Water successive extract from Terminalia arjuna bark and direct ethanol and successive water extracts from Terminalia arjuna fruit was dissolved in DMSO. To determine the antibacterial potential extracts at a concentration of 5 mg/ml and 1 mg/ml were added to 30 ml of luke warm Luria Bertaini agar medium. After the medium was solidified, overnight grown 11 bacterial strains mentioned were taken in loop and streaked on the medium. The plates were incubated at 37° C. for 24 hrs after which the bacterial growth was monitored. Suitable controls were maintained with the extracts and the microorganisms. Luria Bertaini agar medium with and without 1.5% DMSO were used as negative control set, Ciprofloxacin (2 μg/ml) served as positive control.

[3] = test system: Staphylococcus epidermidis ATCC-6358; experiment: Antibacterial assay, agar streak method; assay type: cell-based; parameters: key: +++: abundant growth; ++: growth; +: less growth; −: no growth; conditions: S. epidermidis
Source text: as §1, §2

[4] = test system: Bacillus cereus ATCC-11778; experiment: Antibacterial assay, agar streak method; assay type: cell-based; parameters: key: +++: abundant growth; ++: growth; +: less growth; −: no growth; conditions: B. cereus
Source text: as §1, §2

[5] = test system: Staphylococcus aureus ATCC-29737; experiment: Antibacterial assay, agar streak method; assay type: cell-based; parameters: key: +++: abundant growth; ++: growth; +: less growth; −: no growth; conditions: S. aureus
Source text: as §1, §2

[6] = test system: Bacillus pumilus ATCC-14884; experiment: Antibacterial assay, agar streak method; assay type: cell-based; parameters: key: +++: abundant growth; ++: growth; +: less growth; −: no growth; conditions: B. pumilus
Source text: as §1, §2

[7] = test system: Klebsiella pneumoniea ATCC-10031; experiment: Antibacterial assay, agar streak method; assay type: cell-based; parameters: key: +++: abundant growth; ++: growth; +: less growth; −: no growth; conditions: K. pneumoniea
Source text: as §1, §2

[8] = test system: Escherichia coli ATCC-10536; experiment: Antibacterial assay, agar streak method; assay type: cell-based; parameters: key: +++: abundant growth; ++: growth; +: less growth; −: no growth; conditions: E. coli
Source text: as §1, §2

[9] = test system: Micrococcus luteus ATCC-9341; experiment: Antibacterial assay, agar streak method; assay type: cell-based; parameters: key: +++: abundant growth; ++: growth; +: less growth; −: no growth; conditions: M. luteus
Source text: as §1, §2

[10] = test system: Bacillus subtilis ATCC-6633; experiment: Antibacterial assay, agar streak method; assay type: cell-based; parameters: key: +++: abundant growth; ++: growth; +: less growth; −: no growth; conditions: B. subtilis; LB + Ciprofloxacin 2 μg/ml
Source text: as §1, §2

[11] = test system: Pseudomonas aeruginosa ATCC-9027; experiment: Antibacterial assay, agar streak method; assay type: cell-based; parameters: key: +++: abundant growth; ++: growth; +: less growth; −: no growth; conditions: P. aeruginosa
Source text: as §1, §2

[12] = test system: Bordetella bronchiseptica ATCC-4617; experiment: Antibacterial assay, agar streak method; assay type: cell-based; parameters: key: +++: abundant growth; ++: growth; +: less growth; −: no growth; conditions: B. bronchiseptica
Source text: as §1, §2

[13] = LB + Ciprofloxacin 2 μg/ml (Table 27)

O=C1O[C@H]([C@@H](O)CO)C(O)=C1O [Ascorbate, ascorbic acid]
increase of the cellular production of NO (endothelial cells): 3 fold
IC50 values of antioxidation potential [1]: 26 µg/mL

O=C(O)c1cn(C2CC2)c2cc(N3CCNCC3)c(F)cc2c1=O [Ciprofloxacin]
bacterial growth ([2]; LB + Ciprofloxacin 2 μg/ml): −
bacterial growth [2, 13]: −
bacterial growth ([3]; LB + Ciprofloxacin 2 μg/ml): −
bacterial growth [3, 13]: −
bacterial growth ([4]; LB + Ciprofloxacin 2 μg/ml): −
bacterial growth [4, 13]: −
bacterial growth ([5]; LB + Ciprofloxacin 2 μg/ml): −
bacterial growth [5, 13]: −
bacterial growth ([6]; LB + Ciprofloxacin 2 μg/ml): −
bacterial growth [6, 13]: −
bacterial growth ([7]; LB + Ciprofloxacin 2 μg/ml): −
bacterial growth [7, 13]: −
bacterial growth ([8]; LB + Ciprofloxacin 2 μg/ml): −
bacterial growth [8, 13]: −
bacterial growth ([9]; LB + Ciprofloxacin 2 μg/ml): −
bacterial growth [9, 13]: −
bacterial growth [10]: −
bacterial growth ([11]; LB + Ciprofloxacin 2 μg/ml): −
bacterial growth [11, 13]: −
bacterial growth ([12]; LB + Ciprofloxacin 2 μg/ml): −
bacterial growth [12, 13]: −

From patent US20080166432A1, “Biotherapeutics for Mitigation of Health Disorders from Terminalia Arjuna” (Avestha Gengraine Technologies Pvt. Ltd., priority 2003, published 2008)
